Laboratory results: patent publication US20190032014A1, “USING MICROBIOTA METABOLITES TO DIFFERENTIATE NAÏVE T-CELLS AND RELATED METHODS TO INDUCE OR PREVENT INFLAMMATORY CONDITIONS” (THE TEXAS A&M UNIVERSITY SYSTEM, priority 2016, published 2019)
Entries after “also recorded” stand apart in the source; their conditions may differ.

Tests used:
[1] = test system: naïve T cells obtained from humans; test: Skewing of naïve T cells obtained from humans; type: cell-based
CD4+ CD25− naïve T cells [2] = test: In vitro naïve T cell differentiation, Th17-skew (IL-17+ by FACS); type: cell-based, C57BL/6 mice; details: low and high titrations of IL-6
CD4+ CD25− naïve T cells [3] = test: as above; type: cell-based, C57BL/6 mice; details: Th17 skewing conditions, vs DMF control
Experimental: (§1) Mesenteric lymph node (MLN) and spleen are harvested from WT or FOXP3^EGFP C57Bl/6 mice and homogenized. Spleen tissue is subjected to red blood cell lysis and pooled into a single cell suspension for counting. Counted cells are resuspended in sterile FACS buffer (PBS++ with 05% bovine serum albumin) at a concentration of ˜5×10^7 cells/mL and stained for 45 minutes at 4° C. with anti-CD4 and anti-CD25 fluorophore-conjugated monoclonal antibodies (mAb). After two washes, the stained cells are resuspended at ˜6×10^6 cells/mL in FACS buffer and immediately sorted. […] TDMMs are solubilized in DMF at 2 M and used at desired concentrations (e.g., 0.01, 0.1, 0.5 and 1.0 mM) in growth media; DMF in growth media (0.05%) is used as a solvent control.
(§2) The % of Treg or Th17 cells are determined based on the expression of signature transcription factors, FoxP3 and Rorγt, respectively. In addition, signature cytokine markers for Treg and Th17, TGFβ or IL-17, respectively, among others are measured using intracellular cytokine staining. Since it is possible that a cell could be positive for FoxP3 and still express some IL-17, the final % of Tregs are determined as the cell population that is FoxP3+TGFβ+ Rorγt-IL-17−. Similarly, the % of Th17 cells are determined as the population that is FoxP3-TGFβ− Rorγt+IL-17+.
(§3) CD4+ CD25− T cells were isolated to high purity (>98%) from the pooled spleen and mesenteric lymph nodes of C57BL/6 mice (Jackson Labs) with a BD FACS Aria II flow cytometer. Fc Block (BD), αCD4-efluor450 (eBioscience clone GK1.5) and αCD25-PECy7 (eBioscience clone PC61.5) antibodies were used for staining before sorting.
(§4) For Th1-skew: 5 ng/mL IL-12 (Peprotech cat. #210-12) and 10 µg/mL αIL-4 (BioXCell clone 11B11) were added to culture. For Th2-skew: 10 ng/mL IL-4 (Peprotech) and 10 μg/mL αIFN-γ (BioXCell clone R4-6A2) were added to culture. For Th17-skew: 10 ng/mL IL-6 (Peprotech), 5 ng/mL IL-23 (R&D), 0.5 ng/mL TGF-β (Peprotech), 10 μg/mL al-4 (BioXCell clone 11B11), and 10 μg/mL αIFN-γ (BioXCell clone R4-6A2) were added to culture. For Treg-skew: 2 ng/mL TGF-β (Peprotech) and 100 U/mL IL-2 (Roche) were added to culture. Sodium Propionate, sodium acetate, sodium butyrate and sodium chloride (all from Sigma-Aldrich) were solubilized in media and added to culture. Indole was solubilized in DMF (both from Sigma-Aldrich) at 2M and brought to final concentration in media. MGCD0103 (Selleck Chemicals) was solubilized in DMF at 2 mM and brought to final concentration in media. A 0.05% DMF solvent control was used for all experiments.

CD4+ CD25− naïve T cells [4] = test: In vitro naïve T cell differentiation, Th1-skew (IFN-γ+); type: cell-based, C57BL/6 mice; details: Th1 skewing conditions; vs solvent control; listed as 5-HI
Experimental: When naïve CD4+ CD25− cells were cultured 72 hours in αCD3/28 coated wells with Th0-, Th1- or Th2-skew cytokines and indole or solvent control, followed by stimulation with PMA, Ionomycin and Golgi Plug for the last 5 hours of culture, no effect on the % of Th1 and Th2 cells was observed (in contrast to the significant effect that indole has on Treg and Th17 cells; see FIGS. 2A and 2B).
as §3, §4

Th17 transfer colitis = Th17 transfer colitis murine model; type: in vivo, Rag-null mice
Experimental: Finally, the presentation describes a study of the effects of an indole-induced iTreg skew on the course of colitis in a Th17 transfer colitis murine model. […] Briefly, naïve T-cells (CD4+CD25−) were cultured in vitro with cytokines to skew function towards a Th17 phenotype, in the presence of indole or 5-HI, or not. The skewed cultures were transferred to Rag-null mice (lack T- and B-lymphocytes); control mice received no T-cells. Mice were monitored for weight loss (as a measure of inflammation) over several weeks and assessed at indicated timepoints for T-cell phenotype.
The body weight of the mice was monitored from the time of cell transfer to the end point of day 49. […] Next, the Treg, Th17, and Th1 differentiation was assessed in cells obtained from the mesenteric lymph nodes (MLN) of mice administered directly with indole, 5-HI and control. These cells were determined/assayed by FACS for phenotype directly ex vivo from mice that were treated as in FIG. 28.

CD4+ CD25− naïve T cells [5] = test: In vitro naïve T cell differentiation, Treg-skew (FoxP3+ by FACS); type: cell-based, C57BL/6 mice; details: Treg skewing conditions, vs DMF control
Experimental: as §1, §2, §3, §4

[6] = test system: wild-type or AhR KO T cells; test: T cell differentiation in wild-type vs AhR KO T cells; type: cell-based, mice
Experimental: The aryl hydrocarbon receptor (AhR) is implicated in the differentiation of Treg and Th17 cells. The role of AhR was assessed with respect to indole's effect on Treg augmentation. Wild-type and AhR KO naïve T-cells were conditioned with increasing amounts of indole and then assessed for % of FoxP3 expression. […] Additionally, the role of AhR was assessed with respect to indole's effect on Th17 inhibition.
The AhR knockout was further investigated for iTreg homing markers, CD62L and α4β7, as described above.
Next, the AhR knockout was further investigated for the impact of AhR on 5-HI-mediated T cell differentiation.

IL-6 receptor / pSTAT3 = test: IL-6 receptor levels and STAT3 activity; type: cell-based; details: vs control
Experimental: Indole and 5-HI were assessed for impact on TGF-β receptor expression and SMAD2/3 activity. […] Indole and 5-HI were also assessed for impact on IL-6 receptor levels and subsequent STAT3 activity.

naïve T cells = details: Arpaia et al. 2013; cited from earlier work
[7] = MLN, D15 and D45, by the end point

SMILES: Oc1ccc2[nH]ccc2c1 [5-hydroxyindole]
- skewing effects on Tregs and Th17 cells in human cells [1]: recapitulated on naïve T cells obtained from humans
- % IL-17+ cells with titrations of IL-6 (CD4+ CD25− naïve T cells [2]): increased the % IL-17+ cells
- effect on % IL-17+ cells / Th17 differentiation (CD4+ CD25− naïve T cells [3]): increases Th17 cells
- effect on % IL-17+ cells / Th17 differentiation (CD4+ CD25− naïve T cells [3]; listed as 5-HI): pro-Th17 response; also recorded: promotes Th1 and Th17 differentiation; also recorded: significant increase in % IL-17+ cells
- effect on % Th1 cells (IFN-γ+) (CD4+ CD25− naïve T cells [4]): promotes Th1 and Th17 differentiation; also recorded: increase in % IFN-γ+ cells
- Th1 differentiation in vivo (% INF-γ+ T cells, Th1/Treg balance, MLN) (Th17 transfer colitis; [7]): increases the number of Th17 differentiation in vivo
- Th17 differentiation in vivo (% IL-17+ T cells, Th17/Treg balance, MLN) (Th17 transfer colitis; [7]): increases the number of Th17 differentiation in vivo
- weight change (% from starting weight) (Th17 transfer colitis; mice receiving conditioned Th17 T cells, around day 43, end point day 49): declined precipitously
- Th17 transfer colitis in vivo (overall) (Th17 transfer colitis; mouse, in vivo): exacerbates Th17 transfer colitis in vivo
- effect on % FoxP3+ cells / Treg differentiation (CD4+ CD25− naïve T cells [5]): decreasing the Treg population
- effect on % FoxP3+ cells / Treg differentiation (CD4+ CD25− naïve T cells [5]; listed as 5-HI): inhibits a Treg response; also recorded: strongly inhibits Treg differentiation; also recorded: decreased the % FoxP3+ cells
- % IL-17+ in wild-type vs AhR KO T cells [6]: significantly increased over wild-type cells
- % of IFN-γ+ T cells in AhR KO vs wild-type T cells ([6]; Th1 skew): not significantly different than in wild-type cells
- FoxP3+ % in wild-type vs AhR KO T cells ([6]; increasing amounts of test substance): decreases similarly in wild-type and AhR KO cells
- % pSTAT3+ cells / IL-6 induced stat3 (IL-6 receptor / pSTAT3): augments the IL-6 induced stat3 expression

SMILES: CC(=O)O [acetate, reference compound]
- effect on % IL-17+ cells / Th17 differentiation (CD4+ CD25− naïve T cells [3]): increases Th17 development
- effect on % FoxP3+ cells / Treg differentiation (CD4+ CD25− naïve T cells [5]): no effect on Treg development

SMILES: CCC(=O)O [propionate, reference compound]
- differentiation of naïve T cells to Treg cells (naïve T cells): promoted differentiation of naïve T cells to Treg cells
- effect on % IL-17+ cells / Th17 differentiation (CD4+ CD25− naïve T cells [3]): increases Treg and Th17 development
- effect on % FoxP3+ cells / Treg differentiation (CD4+ CD25− naïve T cells [5]): increases Treg and Th17 development

SMILES: O=C(O)C(=O)Cc1c[nH]c2ccccc12 [Indole-3-pyruvate]
- effect on % IL-17+ cells / Th17 differentiation (CD4+ CD25− naïve T cells [3]): modest (but significant) decrease in Th17
- effect on % FoxP3+ cells / Treg differentiation (CD4+ CD25− naïve T cells [5]): increasing Treg cells
